Data published in ChEMBL document CHEMBL1152151, “Synthesis and preliminary pharmacological evaluation of N-2-(4-(4-(2-substitutedthiazol-4-yl) piperazin-1-yl)-2-oxoethyl)acetamides as novel atypical antipsychotic agents” (Bioorg Med Chem Lett, 2008).
Active and inactive are the calls of the source. No cut-off for these calls is given here.

Columns and labels:
Mus musculus [1] = test: Inhibition of dopamine D2 receptor-mediated apomorphine-induced cage climbing behavior in Swiss albino mouse at 10 mg/kg measured on 20 mins; assay type: functional
Mus musculus [2] = test: Inhibition of dopamine D2 receptor-mediated apomorphine-induced cage climbing behavior in Swiss albino mouse at 10 mg/kg measured on 10 mins; assay type: functional
Mus musculus [3] = test: Inhibition of dopamine D2 receptor-mediated apomorphine-induced cage climbing behavior in Swiss albino mouse at 10 mg/kg; assay type: functional
Mus musculus [4] = test: Ratio of inhibition of quipazine-induced head twitches to inhibition of apomorphine-induced cage climbing behavior in Swiss albino mouse at 10 mg/kg; assay type: functional
Mus musculus [5] = test: Inhibition of dopamine D2 receptor-mediated apomorphine-induced cage climbing behavior in Swiss albino mouse at 10 mg/kg measured on 30 mins; assay type: functional; settings: 0.5 h
Mus musculus [6] = species: Mus musculus; test: Toxic cataleptic effect against Swiss albino mouse; assay type: toxicity, organism-based; settings: in vivo
Mus musculus [7] = species: Mus musculus; test: Toxic cataleptic effect in Swiss albino mouse assessed as maximum average cataleptic time; assay type: toxicity, organism-based; settings: in vivo
Mus musculus [8] = test: Inhibition of 5HT2A receptor-mediated quipazine-induced head twitches in Swiss albino mouse at 10 mg/kg; assay type: functional
Mus musculus [9] = test: Inhibition of 5HT2A receptor-mediated quipazine-induced head twitches in Swiss albino mouse at 0.6 mg/kg, ip; assay type: functional, organism-based; set-up: dose 0.6 mg/kg
Mus musculus [10] = test: Inhibition of dopamine D2 receptor-mediated apomorphine-induced cage climbing behavior in Swiss albino mouse at 1 mg/kg, ip; assay type: functional, organism-based; set-up: dose 1 mg/kg

## CC(=O)NCC(=O)N1CCN(CCc2ccc(-c3nc(C)sc3C)cc2)CC1
Mus musculus [1]
  inhibition in vivo at 10 mg/kg: 65%
Mus musculus [2]
  inhibition in vivo at 10 mg/kg: 65%
Mus musculus [3]
  inhibition in vivo at 10 mg/kg: 80%
Mus musculus [4]
  Ratio: 0.8875
Mus musculus [5]
  inhibition in vivo at 10 mg/kg: 80%
Mus musculus [6]
  Activity: Non-toxic
Mus musculus [7]
  Activity: 5.12 s
Mus musculus [8]
  inhibition in vivo at 10 mg/kg: 71%

## CNc1nc(-c2ccc(CCN3CCN(C(=O)CNC(C)=O)CC3)cc2)cs1
Mus musculus [1]
  inhibition in vivo at 10 mg/kg: 50%
Mus musculus [2]
  inhibition in vivo at 10 mg/kg: 60%
Mus musculus [3]
  inhibition in vivo at 10 mg/kg: 60%
Mus musculus [4]
  Ratio: 0.9
Mus musculus [5]
  inhibition in vivo at 10 mg/kg: 60%
Mus musculus [6]
  Activity: Non-toxic
Mus musculus [7]
  Activity: 16.54 s
Mus musculus [8]
  inhibition in vivo at 10 mg/kg: 54%

## CC(=O)NCC(=O)N1CCN(CCc2ccc(-c3csc(C)n3)cc2)CC1
Mus musculus [1]
  inhibition in vivo at 10 mg/kg: 65%
Mus musculus [2]
  inhibition in vivo at 10 mg/kg: 70%
Mus musculus [3]
  inhibition in vivo at 10 mg/kg: 70%
Mus musculus [4]
  Ratio: 0.2857
Mus musculus [5]
  inhibition in vivo at 10 mg/kg: 70%
Mus musculus [6]
  Activity: Non-toxic
Mus musculus [7]
  Activity: 4.62 s
Mus musculus [8]
  inhibition in vivo at 10 mg/kg: 20%

## Cc1nc2n(c(=O)c1CCN1CCC(c3noc4cc(F)ccc34)CC1)CCCC2 [RISPERIDONE]
Mus musculus [1]
  inhibition in vivo at 10 mg/kg: 91%
Mus musculus [2]
  inhibition in vivo at 10 mg/kg: 91%
Mus musculus [3]
  inhibition in vivo at 10 mg/kg: 91%
Mus musculus [9]
  Activity: Active
Mus musculus [4]
  Ratio: 1.0989
Mus musculus [5]
  inhibition in vivo at 10 mg/kg: 90%
Mus musculus [6]
  Activity: Non-toxic
Mus musculus [7]
  Activity: 2.54 s
Mus musculus [8]
  inhibition in vivo at 10 mg/kg: 100%

## O=C(CCCN1CCC(O)(c2ccc(Cl)cc2)CC1)c1ccc(F)cc1
Mus musculus [10]
  Activity: Active
